# Experimental data published in patent US8912214B2, “Use of Chk2 kinase inhibitors for cancer treatment” (The United States of America, as Represented by the …, priority 2005, dated 2014).
# Where two headings read alike, the source gives them in different places.
# Assays:
# Format in all cases: biochemical
# Chk2 [1] = biological target: T1, Chk2 (Homo sapiens, UniProt O96017); assay: IMAP Chk2 high-throughput screening assay (fluorescence polarization)
# Chk1 [2] = biological target: T2, Chk1 (Homo sapiens, UniProt O14757); assay: Chk1 inhibitory activity of screening hits; conditions: FIG. 2
# T2 sequence (O14757 1-476): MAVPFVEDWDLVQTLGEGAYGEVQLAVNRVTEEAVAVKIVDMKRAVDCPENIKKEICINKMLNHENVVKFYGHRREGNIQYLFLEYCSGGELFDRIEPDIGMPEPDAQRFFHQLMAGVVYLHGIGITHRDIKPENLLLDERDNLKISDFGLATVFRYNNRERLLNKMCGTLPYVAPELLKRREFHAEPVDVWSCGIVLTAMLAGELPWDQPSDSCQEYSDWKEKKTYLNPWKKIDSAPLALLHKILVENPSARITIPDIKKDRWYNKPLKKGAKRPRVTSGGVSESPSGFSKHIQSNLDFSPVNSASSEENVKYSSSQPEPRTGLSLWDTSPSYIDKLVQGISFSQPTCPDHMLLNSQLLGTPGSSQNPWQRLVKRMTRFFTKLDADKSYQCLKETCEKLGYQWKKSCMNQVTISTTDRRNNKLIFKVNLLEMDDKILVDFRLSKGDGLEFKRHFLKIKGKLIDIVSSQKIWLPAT
# Chk2 [3] = biological target: T1, Chk2; assay: In vitro Chk2 kinase assay (γ32P-ATP, SDS-PAGE); conditions: with increasing concentration; 30° C.; FIGS. 4 and 5
# Description: (§1) Following on from the data obtained from high-throughput screening, another assay is employed to measure Chk2 kinase activity. This assay is based on using γ^32P-labeled ATP to mediate phosphorylation of the target substrate and autophosphorylation of Chk2. Histone H1 or Cdc25C is used as test substrate. The reactions are performed at 30° C. for appropriate times, then the samples have 2×SDS loading buffer added to quench the reaction. The samples are boiled for about 5 minutes and then subjected to SDS-PAGE.
# Chk1 [4] = biological target: T2, Chk1; assay: In vitro Chk1 kinase assay (γ32P-ATP, SDS-PAGE); conditions: FIG. 6
# Text: FIG. 6 illustrates inhibition of Chk1 kinase activity by NSC 109555 using an in vitro kinase assay. Top bands indicate the level of Chk1 autophosphorylation, bottom bands indicate the level of histone H1 phosphorylation.
# as §1
# Staurosporine is used as a positive control to confirm Chk2 inhibition (See, FIG. 4). Following on from this, NSC 109555 is used in this assay and is depicted in FIG. 5. […].
# [5] = IMAP assay, fluorescein-labeled peptide substrate, read-out: EC50 (Chk2 inhibition)
# T1 sequence (O96017 whole entry): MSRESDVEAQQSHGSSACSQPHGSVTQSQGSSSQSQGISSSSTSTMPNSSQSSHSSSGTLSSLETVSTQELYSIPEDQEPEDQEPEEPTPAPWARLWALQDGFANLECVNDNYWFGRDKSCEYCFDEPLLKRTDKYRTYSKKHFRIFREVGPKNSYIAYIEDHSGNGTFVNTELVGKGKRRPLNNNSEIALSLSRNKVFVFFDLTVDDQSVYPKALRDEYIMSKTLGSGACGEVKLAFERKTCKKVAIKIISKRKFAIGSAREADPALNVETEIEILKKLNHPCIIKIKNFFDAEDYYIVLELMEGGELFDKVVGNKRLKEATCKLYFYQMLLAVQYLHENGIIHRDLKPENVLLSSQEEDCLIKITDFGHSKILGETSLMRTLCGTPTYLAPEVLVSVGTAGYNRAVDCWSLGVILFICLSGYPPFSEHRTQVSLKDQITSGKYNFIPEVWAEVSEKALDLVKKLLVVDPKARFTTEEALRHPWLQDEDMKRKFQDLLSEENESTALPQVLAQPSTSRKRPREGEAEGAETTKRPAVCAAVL
SMILES,EC50 (Chk2 [1]; [5]) [µM],further results
CCN(CC)CCCNc1ccc2nc(C)n3c4ccc(O)cc4c(=O)c1c23 [Compound 8],~20,
C/C(=N\O)c1ccc2c(c1)C(=NO)c1ccccc1-2 [Compound 6],0.6 to 3.8,
O=[N+]([O-])c1ccc2c(c1)C(=NO)c1cc([N+](=O)[O-])ccc1-2 [Compound 7],,EC50 (Chk2 [1]): 0.8 to 4 µM
C/C(=N\O)c1ccc2c(c1)C(=NO)c1cc(/C(C)=N/O)ccc1-2 [Compound 5],~4,
C/C(=N\NC(=N)N)c1ccc(NC(=O)Nc2ccc(/C(C)=N/NC(=N)N)cc2)cc1 [NSC 109555],0.051,inhibitory effect on Chk1 activity (Chk1 [2]): little or no inhibitory effect; Chk2 kinase activity (autophosphorylation and histone H1 phosphorylation) (Chk2 [3]): inhibited; kinase activity of Chk1 (Chk1 [4]): did not appear to inhibit
